Laboratory results taken from patent US5547960A (Mayo Foundation for Medical Education and Research, priority 1994, dated 1996).
Read-outs that look alike come from different tables or passages of the source.

Key:
AChE [1] = conditions: relative to (±)-huperzine A; U.S. Pat. No. 4,929,731; cited from earlier work
Alzheimer's disease = conditions: K. L. Davis, NIA meeting, Jan. 8-10, 1990; cited from earlier work
AChE [2] = conditions: 0.65 mg/kg i.m., cited from earlier work
FBS AChE = molecular target: T1, FBS AChE (Bos taurus, UniProt P23795); assay: Inhibition of AChE (dissociation constant Ki, procedure of Y. Ashani et al.); type: biochemical
T1 construct: FBS AChE; from tissue; host or cells: fetal bovine serum (FBS read as this abbreviation)
T1 sequence (P23795 31-613): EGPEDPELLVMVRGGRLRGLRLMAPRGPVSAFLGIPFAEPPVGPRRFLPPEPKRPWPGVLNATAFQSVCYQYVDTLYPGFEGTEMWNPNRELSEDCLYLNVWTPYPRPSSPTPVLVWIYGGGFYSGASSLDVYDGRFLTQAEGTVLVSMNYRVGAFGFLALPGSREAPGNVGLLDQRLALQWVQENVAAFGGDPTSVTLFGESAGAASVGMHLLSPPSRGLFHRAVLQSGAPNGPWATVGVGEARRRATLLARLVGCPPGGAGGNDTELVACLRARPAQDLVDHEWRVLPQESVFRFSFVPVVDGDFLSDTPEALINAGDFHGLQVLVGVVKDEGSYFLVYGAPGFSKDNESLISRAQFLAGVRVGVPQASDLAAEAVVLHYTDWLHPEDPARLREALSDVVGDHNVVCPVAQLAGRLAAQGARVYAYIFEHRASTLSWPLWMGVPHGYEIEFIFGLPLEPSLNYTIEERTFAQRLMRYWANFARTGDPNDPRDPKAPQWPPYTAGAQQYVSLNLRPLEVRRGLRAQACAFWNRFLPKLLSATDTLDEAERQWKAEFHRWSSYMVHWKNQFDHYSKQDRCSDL
From the text: *Dissociation constant (Ki) for inhibition of AChE determined

squirrel monkeys = conditions: G. P. Vincent et al., 1987; cited from earlier work
myasthenia gravis = conditions: 128 patients suffering from myasthenia gravis; Y. S. Cheng, 1986; cited from earlier work
mice = conditions: G. P. Vincent et al., 1987; cited from earlier work
[3] = system: acetylcholinesterase (ACHE); conditions: cited from earlier work
[4] = procedure of Y. Ashani et al., Molecular Pharmacol., 45, 555 (1994), read-out: FBS AChE Ki, dissociation constant for inhibition of AChE

CC=C1C2C=C(C)CC1(CN)c1ccc(=O)[nH]c1C2 (stereo not shown)
times less potent than (±)-huperzine A as an inhibitor of AChE (AChE [1]): about 166 times

CNC(=O)Oc1ccc2c(c1)[C@]1(C)CCN(C)[C@@H]1N2C [physostigmine]
cognitive improvement (Alzheimer's disease): modest cognitive improvement
maximal duration of AChE inhibitory action (AChE [2]; X. C. Tang et al., 1989): ≤ 60 min
side effects (AChE [2]): considerable side effects

C=CCC1c2[nH]c(=O)ccc2C2(N)CC(C)=CC1/C2=C\C (stereo not shown) [Compound 8a, (11E)-10-Allyl-5-amino-11-ethylidene-5,6,9,10-tetrahydro-7-methyl-5,9-methanocycloocta[b]pyridin-5(1H)-one]
Ki (FBS AChE; [4]): 275 µM

C/C=C1\C2C=C(C)CC1(N)c1ccc(=O)[nH]c1C2CCCC (stereo not shown) [Compound 8e, (11E)-5-Amino-10-butyl-11-ethylidene-5,6,9,10-tetrahydro-7-methyl-5,9-methanocycloocta[b]pyridin-2(1H)-one]
Ki (FBS AChE; [4]): 192 µM

C/C=C1\C2C=C(C)CC1(N)c1ccc(=O)[nH]c1C2CC (stereo not shown) [Compound 8c, (11E)-5-Amino-10-ethyl-11-ethylidene-5,6,9,10-tetrahydro-7-methyl-5,9-methanocycloocta[b]pyridin-2(1H)-one]
Ki (FBS AChE): 2.04 µM

CC=C1C2C=C(C)CC1(N)c1ccc(=O)[nH]c1C2 (single isomer, unassigned) [huperzine A]
cognition enhancement in squirrel monkeys (squirrel monkeys): effective cognition enhancer
cases in which clinical manifestations of myasthenia gravis are controlled (myasthenia gravis): 99%
cognition enhancement in mice (mice): effective cognition enhancer

C/C=C1\C2C=C(C)CC1(N)c1ccc(=O)[nH]c1C2C (stereo not shown) [Compound 8b, (11E)-5-Amino-11-ethylidene-5,6,9,10-tetrahydro-7,10-dimethyl-5,9-methanocycloocta[b]pyridin-2(1H)-one]
Ki (FBS AChE; [4]): 0.008 ± 0.002 µM

CC1=CC2Cc3[nH]c(=O)ccc3C3(C1)NCCCC23 (stereo not shown) [huperzine B]
usefulness as ACHE inhibitors relative to THA and physostigmine [3]: appear superior to THA and physostigmine

C/C=C1\C2C=C(C)CC1(N)c1ccc(=O)[nH]c1C2CCC (stereo not shown) [Compound 8d, (11E)-5-Amino-11-ethylidene-5,6,9,10-tetrahydro-7-methyl-10-propyl-5,9-methanocycloocta[b]pyridin-2(1H)-one]
Ki (FBS AChE; [4]): 207 µM
